Laboratory results taken from patent publication US20230218614A1, “COMPOUND FOR THE TREATMENT OF C[…]” (METRIOPHARM AG, priority 2020, published 2023).

Assays:
Vero B4 cells = settings: non-infected Vero B4 cells, antivirally effective concentrations, observation period of 3 days
Excerpt: Herein viable cells with an intact mitochondrial succinate-tetrazolium dehydrogenase system effect an enzymatic conversion of the feebly red tetrazolium salt WST-1 (4-[3-(4-iodophenyl)-2-(4-nitrophenyl)-2H-5-tetrazolio]-1,3 benzene disulfonate) into dark red formazan. This color change can be measured photometrically in a spectrophotometer. Thus, the WST assay is a very sensitive method for measuring the toxicity of substances on the cell metabolism. The value for untreated cells was set to 100%.
The value for untreated cells was set to 100%.

3-nitrotyrosine = settings: ex vivo lung exposed to cigarette smoke; cited from earlier work

## Nc1cccc2c(=O)[nH][nH]c(=O)c12.[Na] [5-amino-2,3-dihydro-1,4-phthalazinedione sodium salt]
Vero B4 cells
  toxic effect (cell viability, WST assay): does not display any significant toxic effect
SARS-CoV-2
  SARS-CoV-2 nucleocapsid protein (Western Blot bands): clear reduction
  generation of SARS-CoV-2 proteins (densitometric evaluation of nucleocapsid): inhibited dose-dependently
3-nitrotyrosine
  3-nitrotyrosine: nearly complete reduction
